Five compounds from patent publication US20260200944A1, “NOVEL IRAK4 INHIBITOR AND COMPOUND FOR INHIBITING AND DEGRADING IRAK4 PROTEIN, AND PREPARATION METHOD THEREFOR AND USE THEREOF” (DOVETREE MEDICINES UNUS, INC., priority 2022, published 2026) can be followed below.

For orientation: IC50 means the concentration at which inhibition is half-maximal.

Structures are written as SMILES.

The target of this assay is T1, IRAK4 kinase protein (Homo sapiens, UniProt Q9NWZ3).
T1 sequence (Q9NWZ3 1-460): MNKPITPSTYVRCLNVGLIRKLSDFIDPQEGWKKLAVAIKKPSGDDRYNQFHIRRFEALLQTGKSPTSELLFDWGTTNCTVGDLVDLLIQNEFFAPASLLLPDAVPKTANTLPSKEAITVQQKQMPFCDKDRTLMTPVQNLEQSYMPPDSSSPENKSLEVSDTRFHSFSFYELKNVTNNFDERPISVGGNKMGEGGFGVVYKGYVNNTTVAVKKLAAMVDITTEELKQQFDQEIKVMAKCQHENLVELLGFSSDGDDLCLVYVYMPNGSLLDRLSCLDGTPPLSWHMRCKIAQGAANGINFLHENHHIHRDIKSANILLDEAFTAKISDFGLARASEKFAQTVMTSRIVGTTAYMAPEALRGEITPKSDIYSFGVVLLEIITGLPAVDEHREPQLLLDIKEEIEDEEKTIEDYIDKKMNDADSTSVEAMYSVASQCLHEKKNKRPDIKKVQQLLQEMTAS
Description: IRAK4 kinase inhibition assay (Cisbio HTRF KinEASE-STK S1 kit). The assay is classed as biochemical. Particulars: IRAK4 10 nM, ATP 200 μM, substrate 1 μM, 37° C. for 2 h, read-out: IRAK4 inhibitory activity IC50. The procedure: In this assay, the Cisbio HTRF KinEASE-STK SI kit (62S1PEB) was used. The assay/detection buffer, STK Substrate 1-biotin, Streptavidin-XL665, and STKAntibody-Crypatete were all contained in the kit.
After the compound/DMSO was added to a 384-well plate (PerkinElmer 6008280) using Echo 665, 5 μL of 2-fold reaction concentration of IRAK4 kinase protein (final concentration: 10 nM) dissolved with an assay buffer [1 volume of 5× kinase buffer+20 mM magnesium chloride (Sigma) solution+1 mM DTT (Alfa Aesar) solution+4 volumes of deionized water] was added. The shallow well plate was sealed, shaken, centrifuged at 1000 rpm for 1 min, and then incubated at room temperature for 5 min. Then, 5 μL of 2-fold reaction concentration of a 1:1 mixture of STK Substrate 1-biotin (final concentration: 1 μM) and ATP (Sigma A1852) (final concentration: 200 μM) formulated with the assay buffer was added. The shallow well plate was sealed, shaken, centrifuged at 1000 rpm for 1 min, and then incubated at 37° C. for 2 h, followed by the addition of 10 μL of a 1:1 mixture of Streptavidin-XL665 (final concentration: 62.5 nM) and STK-antibody-cryptate dissolved with a detection buffer. The shallow well plate was sealed, shaken, centrifuged at 1000 rpm for 1 min, and then incubated at room temperature for 1 h, and then the value at the wavelength of 620 nm/665 nm was read using a microplate reader. The data were analyzed using Prism 9.3 software, and the IC50 value of IRAK4 kinase inhibition was fitted using a four parameter Logistic equation.
On the technique in general: TR-FRET usually uses a lanthanide donor and a delayed reading to cut background.
As for `FC(F)c1nn(C2CCCCC2)c2cnc(-n3ccc4ccc(N5CCOCC5)nc43)cc12` [Compound C1], the IC50 was in the range of 5 to 10 µM. Consider `N#Cc1cnc2c(ccn2-c2cc3c(C(F)F)nn(C4CCCCC4)c3cn2)c1` [Compound C5i], for which the IC50 was more than 10 µM. Turning to `NC(=O)c1cnn2c(-c3cc4c(C(F)F)nn(C5CCCCC5)c4cn3)ccc2c1` [Compound C4ii], the concentration for half-maximal inhibition (IC50) was less than 1 µM. Turning to `NC(=O)c1cnc2c(ccn2-c2cc3c(C(F)F)nn(C4CCCCC4)c3cn2)c1` [Compound C5ii], the IC50 was 1 to 5 µM. In the case of `N#Cc1cnc2c(-c3cc4c(C(F)F)nn(C5CCCCC5)c4cn3)cnn2c1` [Compound C3i], the IC50 is 1 to 5 µM.
